Measurements taken from patent US20210330611A1, “THERAPY FOR NEUROLOGICAL DISEASES/DISORDERS” (priority 2020, published 2021).
Structures can show the parent of a compound that is named as a salt. Where two headings read alike, the source gives them in different places. Where no end group is shown, it is not given here.

What was measured:
primary rat microglia [1] = assay: Cell toxicity (dead cells, size <150 μm2) in coated fibrin (cFib) assay; conditions: for IC50: read-out: Cell Toxicity IC50 (uM) [cFib assay];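 as to Fibrin % cell toxicity: share of dead cells sized under 150 µm2 at 10 µM in fibrin-stimulated microglia HTS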
[2] = system: fibrin- and LPS-induced microglia activation; assay: cells; assay type: cell-based, rat
primary rat microglia [3] = assay: Cell toxicity (dead cells, size <150 μm2) in LPS assay; conditions: for IC50: read-out: Cell Toxicity IC50 (uM) [LPS assay]
[4] = system: LPS-induced microglia activation; assay: Image-based assay of LPS-induced microglia activation (HTS and dose response); assay type: cell-based, rat; conditions: for inhibition at 10 µM: Rattus norvegicus, Microglia, read-out: LPS % inhibition
[5] = system: fibrin-induced microglia activation; assay: Image-based assay of fibrin-induced microglia activation (HTS and dose response); assay type: cell-based, rat; conditions: for inhibition at 10 µM: Rattus norvegicus, Microglia, read-out: Fibrin % inhibition
[6] = primary microglia HTS, fibrin stimulation, toxicity = cell size <150 μm2
[7] = quadrant by fibrin and LPS inhibition in HTS of 1907 compounds
[8] = primary microglia HTS, LPS stimulation, toxicity = cell size <150 μm2
[9] = 48 h, primary microglia HTS, LPS stimulation, activation = cell size >800 μm2
[10] = primary microglia HTS, fibrin stimulation, activation = cell size >800 μm2
[11] = primary microglia HTS, fibrin stimulation, decreased size (<150 μm^2) as marker of toxicity
[12] = primary microglia HTS, LPS stimulation, decreased size (<150 μm^2) as marker of toxicity
[13] = 48 h, primary microglia HTS, LPS stimulation, increased cell size (>800 μm^2) as marker of activation
[14] = primary microglia HTS, fibrin stimulation, increased cell size (>800 μm^2) as marker of activation
[15] = primary HTS, 10 μM, fibrin assay, dead cells size <150 μm2
[16] = primary HTS, 10 μM, LPS assay, dead cells size <150 μm2
[17] = primary HTS, 10 μM, LPS-stimulated primary microglia
[18] = primary HTS, 10 μM, fibrin-stimulated primary microglia
[19] = primary microglia HTS, 10 μM, fibrin assay, cell size <150 μm^2 as marker of toxicity
[20] = HTS of 1907 compounds, quadrant by fibrin and LPS inhibition
[21] = primary microglia HTS, 10 μM, LPS assay, cell size <150 μm^2 as marker of toxicity
[22] = primary microglia HTS, 10 μM, LPS-stimulated, cell size >800 μm^2 as marker of activation
[23] = primary microglia HTS, 10 μM, fibrin-stimulated, cell size >800 μm^2 as marker of activation

CNC1(c2ccccc2Cl)CCCCC1=O (stereo not drawn) [Ketamine]
Fibrin % cell toxicity (primary rat microglia [1]; [6]): 1%
Quadrant (FIG. 5b) [2, 7]: Q4
LPS % cell toxicity (primary rat microglia [3]; [8]): 0%
inhibition at 10 µM [4, 9]: -2%
inhibition at 10 µM [5, 10]: -86%

N=C(N)NCC1COC2(CCCCC2)O1 (stereo not drawn) [Guanadrel]
Fibrin % cell toxicity (primary rat microglia [1]; [6]): 1%
Quadrant (FIG. 5b) [2, 7]: Q4
LPS % cell toxicity (primary rat microglia [3]; [8]): 0%
inhibition at 10 µM [4, 9]: 5%
inhibition at 10 µM [5, 10]: -1%

Cc1cc(C(C)(C)C)c(O)c(C)c1CC1=NCCN1 [Oxymetazoline]
Fibrin % cell toxicity (primary rat microglia [1]; [11]): 1%
Quadrant (FIG. 5b) [2, 7]: Q4
LPS % cell toxicity (primary rat microglia [3]; [12]): 0%
inhibition at 10 µM [4, 13]: 20%
inhibition at 10 µM [5, 14]: -13%

CCCCC[C@H](O)/C=C/[C@H]1[C@H](O)CC(=O)[C@@H]1CCCCCCC(=O)O [Alprostadil]
Fibrin % cell toxicity (primary rat microglia [1]; [11]): 9%
Quadrant (FIG. 5b) [2, 7]: Q2
LPS % cell toxicity (primary rat microglia [3]; [12]): 3%
inhibition at 10 µM [4, 13]: 87%
inhibition at 10 µM [5, 14]: 100%

CC(C)(Oc1ccc(CCNC(=O)c2ccc(Cl)cc2)cc1)C(=O)O [Bezafibrate]
Fibrin % cell toxicity (primary rat microglia [1]; [15]): 0%
Quadrant (FIG. 5b) ([2]; primary HTS, 10 μM): Q4
LPS % cell toxicity (primary rat microglia [3]; [16]): 0%
inhibition at 10 µM [4, 17]: 18%
inhibition at 10 µM [5, 18]: -4%

Oc1cc(O)c2c(c1)O[C@H](c1ccc(O)c(O)c1)[C@@H](O)C2 [Cianidanol]
Fibrin % cell toxicity (primary rat microglia [1]; [15]): 0%
Quadrant (FIG. 5b) ([2]; primary HTS, 10 μM): Q4
LPS % cell toxicity (primary rat microglia [3]; [16]): 0%
inhibition at 10 µM [4, 17]: 7%
inhibition at 10 µM [5, 18]: -19%

NC(=O)N/N=C/c1ccc([N+](=O)[O-])o1 [Nitrofural]
Fibrin % cell toxicity (primary rat microglia [1]; [11]): 0%
Quadrant (FIG. 5b) [2, 7]: Q4
LPS % cell toxicity (primary rat microglia [3]; [12]): 0%
inhibition at 10 µM [4, 13]: 1%
inhibition at 10 µM [5, 14]: -14%

CN(C/C=C/C#CC(C)(C)C)Cc1cccc2ccccc12 [Terbinafine, Terbinafine Hydrochloride]
Fibrin % cell toxicity (primary rat microglia [1]; [19]): 0%
Quadrant (FIG. 5b) [2, 20]: Q4
LPS % cell toxicity (primary rat microglia [3]; [21]): 0%
LPS % inhibition [4, 22]: 6%
Fibrin % inhibition [5, 23]: −23%

COc1ccccc1OCC(O)CO (stereo not drawn) [Guaifenesin]
Fibrin % cell toxicity (primary rat microglia [1]; [6]): 0%
Quadrant (FIG. 5b) [2, 7]: Q4
LPS % cell toxicity (primary rat microglia [3]; [8]): 0%
inhibition at 10 µM [4, 9]: 11%
inhibition at 10 µM [5, 10]: -15%

COCCc1ccc(OCC(O)CNC(C)C)cc1 (stereo not drawn) [Metoprolol]
Fibrin % cell toxicity (primary rat microglia [1]; [11]): 1%
Quadrant (FIG. 5b) [2, 7]: Q4
LPS % cell toxicity (primary rat microglia [3]; [12]): 0%
inhibition at 10 µM [4, 13]: 22%
inhibition at 10 µM [5, 14]: 4%

COc1cc2c(cc1OC)[C@@]13CCN4CC5=CCO[C@H]6CC(=O)N2[C@H]1[C@H]6[C@H]5C[C@H]43 [Brucine]
Fibrin % cell toxicity (primary rat microglia [1]; [15]): 1%
Quadrant (FIG. 5b) ([2]; primary HTS, 10 μM): Q4
LPS % cell toxicity (primary rat microglia [3]; [16]): 0%
inhibition at 10 µM [4, 17]: 13%
inhibition at 10 µM [5, 18]: 6%

CN1C(=O)CC(C)(c2ccccc2)C1=O (stereo not drawn) [Methsuximide]
Fibrin % cell toxicity (primary rat microglia [1]; [11]): 0%
Quadrant (FIG. 5b) [2, 7]: Q4
LPS % cell toxicity (primary rat microglia [3]; [12]): 0%
inhibition at 10 µM [4, 13]: 19%
inhibition at 10 µM [5, 14]: -39%

COc1ccccc1Oc1c(NS(=O)(=O)c2ccc(C(C)(C)C)cc2)nc(-c2ncccn2)nc1OCCO [Bosentan]
Fibrin % cell toxicity (primary rat microglia [1]; [15]): 1%
Quadrant (FIG. 5b) ([2]; primary HTS, 10 μM): Q4
LPS % cell toxicity (primary rat microglia [3]; [16]): 0%
inhibition at 10 µM [4, 17]: 10%
inhibition at 10 µM [5, 18]: -14%

CCOc1ccc2ccccc2c1C(=O)N[C@@H]1C(=O)N2[C@@H]1SC(C)(C)[C@@H]2C(=O)O [Nafcillin Sodium]
Fibrin % cell toxicity (primary rat microglia [1]; [11]): 0%
Quadrant (FIG. 5b) [2, 7]: Q4
LPS % cell toxicity (primary rat microglia [3]; [12]): 0%
inhibition at 10 µM [4, 13]: 15%
inhibition at 10 µM [5, 14]: -7%

CC(C)(C)NCC(O)c1cc(O)cc(O)c1 (stereo not drawn) [Terbutaline]
Fibrin % cell toxicity (primary rat microglia [1]; [19]): 1%
Quadrant (FIG. 5b) [2, 20]: Q4
LPS % cell toxicity (primary rat microglia [3]; [21]): 0%
inhibition at 10 µM [4, 22]: 28%
inhibition at 10 µM [5, 23]: 39%

CCC[C@@H]1C[C@@H](C(=O)N[C@@H]([C@H]2O[C@H](SC)[C@H](O)[C@@H](O)[C@H]2O)[C@@H](C)O)N(C)C1 [Lincomycin Hydrochloride]
Fibrin % cell toxicity (primary rat microglia [1]; [6]): 1%
Quadrant (FIG. 5b) [2, 7]: Q4
LPS % cell toxicity (primary rat microglia [3]; [8]): 0%
LPS % inhibition ([4]; primary microglia HTS, LPS stimulation, activation = cell size >800 μm2): 14%
Fibrin % inhibition [5, 10]: −4%

O=C(O)c1ccccc1Nc1cccc(C(F)(F)F)c1 [Flufenamic Acid]
Fibrin % cell toxicity (primary rat microglia [1]; [6]): 0%
Quadrant (FIG. 5b) [2, 7]: Q4
LPS % cell toxicity (primary rat microglia [3]; [8]): 0%
inhibition at 10 µM [4, 9]: -1%
inhibition at 10 µM [5, 10]: -20%

CN1C[C@H](CNC(=O)OCc2ccccc2)C[C@@H]2c3cccc4c3c(cn4C)C[C@H]21 [Metergoline]
Fibrin % cell toxicity (primary rat microglia [1]; [11]): 1%
Quadrant (FIG. 5b) [2, 7]: Q4
LPS % cell toxicity (primary rat microglia [3]; [12]): 0%
inhibition at 10 µM [4, 13]: 16%
inhibition at 10 µM [5, 14]: -12%

CC(C(=O)O)c1ccc(CC2CCCC2=O)cc1 (stereo not drawn) [Loxoprofen]
Fibrin % cell toxicity (primary rat microglia [1]; [11]): 1%
Quadrant (FIG. 5b) [2, 7]: Q4
LPS % cell toxicity (primary rat microglia [3]; [12]): 0%
inhibition at 10 µM [4, 13]: 10%
inhibition at 10 µM [5, 14]: -19%

CCC(CC)(CC(=O)Nc1cccc(/C=C/c2nc(C3CCC3)cs2)c1)C(=O)O [Cinalukast]
Fibrin % cell toxicity (primary rat microglia [1]; [15]): 1%
Quadrant (FIG. 5b) ([2]; primary HTS, 10 μM): Q4
LPS % cell toxicity (primary rat microglia [3]; [16]): 0%
inhibition at 10 µM [4, 17]: -8%
inhibition at 10 µM [5, 18]: -21%

Chlorophyllide Cu Complex Na Salt
Fibrin % cell toxicity (primary rat microglia [1]; [15]): 0%
Quadrant (FIG. 5b) ([2]; primary HTS, 10 μM): Q4
LPS % cell toxicity (primary rat microglia [3]; [16]): 0%
LPS % inhibition [4, 17]: 9%
Fibrin % inhibition [5, 18]: −36%

CCCOc1ccc2[nH]c(NC(=O)OC)nc2c1 [Oxybendazole, reference compound]
Fibrin % cell toxicity (primary rat microglia [1]; [11]): 2%
IC50 (primary rat microglia [1]; Table 3): > 20 µM
IC50 (primary rat microglia [1]; cFib assay): > 20 µM
Hit ([2]; HTS hit classification): HIT (Hits were defined as molecules that exhibited greater than 50% inhibition of either fibrin or LPS activation)
Quadrant (FIG. 5b) [2, 20]: Q3
Quadrant (FIG. 5b) ([2]; Table 1, screen at 10 μM): Q3
Cherry-picked Hit (Suppl. Table 7) ([2]; Table 3): HIT (Hits were defined as molecules that exhibited greater than 50% inhibition of either fibrin or LPS activation)
Quadrant (FIG. 5b) ([2]; Table 3, screen at 10 μM): Q3
Cherry-picked Hit (Suppl. Table 7) ([2]; hit classification in microglia HTS): HIT (Hits were defined as molecules that exhibited greater than 50% inhibition of either fibrin or LPS activation)
Quadrant (FIG. 5b) [2, 7]: Q3
LPS % cell toxicity (primary rat microglia [3]; [12]): 1%
IC50 (primary rat microglia [3]; LPS assay): > 20 µM
IC50 (primary rat microglia [3]; Table 3): > 20 µM
IC50 ([4]; LPS-induced microglia activation, dose response, read-out: LPS IC50 (uM) (Suppl. Table 7)): 12 µM
IC50 ([4]; Table 1, dose response 0.001-20 μM, triplicates, primary rat microglia, 48 h, read-out: LPS IC50): 12 µM
IC50 ([4]; Table 3, read-out: LPS IC50 (uM) (Suppl. Table 7)): 12 µM
IC50 ([4]; dose response, LPS-induced microglia activation, read-out: LPS IC50): 12 µM
LPS % inhibition ([4]; primary microglia HTS, LPS stimulation, increased cell size (>800 μm^2) as marker of activation): 15%
Fibrin Selectivity [5]: 2
Fibrin Selectivity (LOG10) [5]: 0.22
IC50 ([5]; Table 1, dose response 0.001-20 μM, triplicates, primary rat microglia, 48 h, read-out: Fibrin IC50): 7 µM
IC50 ([5]; Table 3, read-out: Fibrin IC50 (uM) (Suppl. Table 7)): 7 µM
IC50 ([5]; dose response, fibrin-induced microglia activation, read-out: Fibrin IC50): 7 µM
IC50 ([5]; fibrin-induced microglia activation, dose response, read-out: Fibrin IC50 (uM) (Suppl. Table 7)): 7 µM
Fibrin % inhibition [5, 14]: 78%

CN1CCOC(c2ccccc2)c2ccccc2C1 (stereo not drawn) [Nefopam]
Fibrin % cell toxicity (primary rat microglia [1]; [11]): 0%
Quadrant (FIG. 5b) [2, 7]: Q4
LPS % cell toxicity (primary rat microglia [3]; [12]): 0%
inhibition at 10 µM [4, 13]: 3%
inhibition at 10 µM [5, 14]: -15%

CN1CC(=O)N2[C@H](c3ccc4c(c3)OCO4)c3[nH]c4ccccc4c3C[C@@H]2C1=O [Tadalafil]
Fibrin % cell toxicity (primary rat microglia [1]; [19]): 1%
Quadrant (FIG. 5b) [2, 20]: Q4
LPS % cell toxicity (primary rat microglia [3]; [21]): 0%
inhibition at 10 µM [4, 22]: 16%
inhibition at 10 µM [5, 23]: -1%

Nc1ccc(O)c(C(=O)O)c1 [Mesalazine]
Fibrin % cell toxicity (primary rat microglia [1]; [11]): 1%
Quadrant (FIG. 5b) [2, 7]: Q4
LPS % cell toxicity (primary rat microglia [3]; [12]): 0%
inhibition at 10 µM [4, 13]: 19%
inhibition at 10 µM [5, 14]: 9%

RKDVY [Thymopentin]
Fibrin % cell toxicity (primary rat microglia [1]; [19]): 1%
Quadrant (FIG. 5b) [2, 20]: Q4
LPS % cell toxicity (primary rat microglia [3]; [21]): 0%
LPS % inhibition [4, 22]: 20%
Fibrin % inhibition [5, 23]: −20%
